Experimental data: the kinase profiling compilation of Christmann-Franck et al. (2016)

What was measured:
Experiment in all cases: radiometric filter-binding kinase assay
SYK (human) = SYK (human) (UniProt P43405)
PLK1 (human) = PLK1 (human) (UniProt P53350)
PIM3 (human) = PIM3 (human) (UniProt Q86V86)
INSRR (human) = INSRR (human) (UniProt P14616)
MARK4 (human) = MARK4 (human) (UniProt Q96L34)
TBK1 (human) = TBK1 (human) (UniProt Q9UHD2)
CDK2 CCNA2 (human) = CDK2 CCNA2 (human) (UniProt P20248+P24941)
INSR (human) = INSR (human) (UniProt P06213)
MAPKAPK3 (human) = MAPKAPK3 (human) (UniProt Q16644)
FLT1 (human) = FLT1 (human) (UniProt P17948)
EPHA4 (human) = EPHA4 (human) (UniProt P54764)
Chain of EPHA4 (human) (P54764 whole entry, looked up): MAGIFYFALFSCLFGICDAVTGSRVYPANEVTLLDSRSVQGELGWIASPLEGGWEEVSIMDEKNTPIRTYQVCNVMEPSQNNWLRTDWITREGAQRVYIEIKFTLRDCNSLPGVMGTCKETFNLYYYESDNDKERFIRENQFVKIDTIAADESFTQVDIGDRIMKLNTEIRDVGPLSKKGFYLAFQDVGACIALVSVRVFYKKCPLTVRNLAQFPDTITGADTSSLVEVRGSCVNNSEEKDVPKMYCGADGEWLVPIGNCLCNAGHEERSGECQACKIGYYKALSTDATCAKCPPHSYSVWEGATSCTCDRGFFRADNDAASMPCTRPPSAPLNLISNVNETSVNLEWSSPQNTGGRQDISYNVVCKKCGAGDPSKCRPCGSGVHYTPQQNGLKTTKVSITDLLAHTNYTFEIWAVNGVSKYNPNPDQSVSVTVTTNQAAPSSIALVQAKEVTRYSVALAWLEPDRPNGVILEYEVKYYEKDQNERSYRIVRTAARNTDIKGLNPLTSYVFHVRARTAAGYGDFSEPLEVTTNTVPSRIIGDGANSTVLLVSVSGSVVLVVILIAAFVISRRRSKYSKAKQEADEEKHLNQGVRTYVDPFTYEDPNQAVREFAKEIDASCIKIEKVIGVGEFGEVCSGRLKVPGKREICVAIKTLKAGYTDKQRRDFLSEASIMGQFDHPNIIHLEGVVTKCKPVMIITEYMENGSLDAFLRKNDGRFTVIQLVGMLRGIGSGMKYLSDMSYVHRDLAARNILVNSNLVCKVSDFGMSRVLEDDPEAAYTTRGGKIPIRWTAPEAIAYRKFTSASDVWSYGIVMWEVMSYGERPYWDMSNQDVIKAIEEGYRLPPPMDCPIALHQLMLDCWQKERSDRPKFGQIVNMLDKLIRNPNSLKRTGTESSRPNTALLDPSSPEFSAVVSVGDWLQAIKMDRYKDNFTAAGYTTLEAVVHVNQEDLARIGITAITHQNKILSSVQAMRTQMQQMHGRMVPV

MAP3K11 (human) = MAP3K11 (human) (UniProt Q16584)
Chain of MAP3K11 (human) (Q16584 whole entry, looked up): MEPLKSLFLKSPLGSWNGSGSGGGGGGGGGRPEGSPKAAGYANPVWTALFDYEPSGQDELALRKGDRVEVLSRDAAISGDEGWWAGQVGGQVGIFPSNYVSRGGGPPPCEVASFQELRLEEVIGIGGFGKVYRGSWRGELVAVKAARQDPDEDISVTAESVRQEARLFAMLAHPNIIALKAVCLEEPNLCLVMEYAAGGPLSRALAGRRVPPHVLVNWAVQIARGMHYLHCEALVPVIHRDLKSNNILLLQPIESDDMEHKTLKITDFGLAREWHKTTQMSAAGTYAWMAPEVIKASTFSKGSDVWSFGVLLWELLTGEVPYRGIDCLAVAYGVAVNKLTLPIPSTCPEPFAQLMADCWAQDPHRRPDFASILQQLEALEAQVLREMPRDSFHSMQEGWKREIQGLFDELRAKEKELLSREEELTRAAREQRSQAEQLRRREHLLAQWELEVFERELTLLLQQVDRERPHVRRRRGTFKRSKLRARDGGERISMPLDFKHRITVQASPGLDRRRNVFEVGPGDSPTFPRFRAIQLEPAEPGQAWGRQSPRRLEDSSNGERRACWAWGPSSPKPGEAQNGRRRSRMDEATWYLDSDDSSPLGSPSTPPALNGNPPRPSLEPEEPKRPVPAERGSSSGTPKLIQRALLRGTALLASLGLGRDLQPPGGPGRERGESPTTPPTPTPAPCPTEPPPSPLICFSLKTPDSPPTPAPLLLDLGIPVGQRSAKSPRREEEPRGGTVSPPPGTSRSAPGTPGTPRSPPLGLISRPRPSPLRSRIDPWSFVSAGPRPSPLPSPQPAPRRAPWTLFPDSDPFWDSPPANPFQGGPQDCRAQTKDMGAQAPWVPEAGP

RIPK2 (human) = RIPK2 (human) (UniProt O43353)
MAP2K2 (human) = MAP2K2 (human) (UniProt P36507)
IRAK4 (human) = IRAK4 (human) (UniProt Q9NWZ3)
Chain of IRAK4 (human) (Q9NWZ3 whole entry, looked up): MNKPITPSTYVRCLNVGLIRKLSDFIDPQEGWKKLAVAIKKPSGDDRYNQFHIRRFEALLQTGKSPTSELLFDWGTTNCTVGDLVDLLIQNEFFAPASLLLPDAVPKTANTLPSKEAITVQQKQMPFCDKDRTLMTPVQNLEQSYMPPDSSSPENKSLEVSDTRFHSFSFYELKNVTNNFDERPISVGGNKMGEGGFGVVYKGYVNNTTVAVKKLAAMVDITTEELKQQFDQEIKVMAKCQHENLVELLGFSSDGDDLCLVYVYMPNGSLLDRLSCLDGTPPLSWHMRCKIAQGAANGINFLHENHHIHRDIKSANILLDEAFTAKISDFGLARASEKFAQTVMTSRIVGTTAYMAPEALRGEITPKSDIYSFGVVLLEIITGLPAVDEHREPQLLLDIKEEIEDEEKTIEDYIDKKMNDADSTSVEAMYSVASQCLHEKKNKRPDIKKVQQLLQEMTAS

AURKA (human) = AURKA (human) (UniProt O14965)
Chain of AURKA (human) (O14965 whole entry, looked up): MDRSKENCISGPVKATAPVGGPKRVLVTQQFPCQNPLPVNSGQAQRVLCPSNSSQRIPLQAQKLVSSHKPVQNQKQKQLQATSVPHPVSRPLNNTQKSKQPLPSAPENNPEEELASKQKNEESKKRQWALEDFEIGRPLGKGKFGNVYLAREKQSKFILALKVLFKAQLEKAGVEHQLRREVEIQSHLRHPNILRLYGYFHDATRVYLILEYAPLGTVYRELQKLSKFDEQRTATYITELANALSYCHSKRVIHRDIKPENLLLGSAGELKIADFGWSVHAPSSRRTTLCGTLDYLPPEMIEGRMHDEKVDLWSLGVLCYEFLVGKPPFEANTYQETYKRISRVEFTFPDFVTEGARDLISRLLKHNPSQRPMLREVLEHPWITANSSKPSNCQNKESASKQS

TTK (human) = TTK (human) (UniProt P33981)
MAPK12 (human) = MAPK12 (human) (UniProt P53778)

Chain of INSRR (human) (P14616 whole entry, looked up): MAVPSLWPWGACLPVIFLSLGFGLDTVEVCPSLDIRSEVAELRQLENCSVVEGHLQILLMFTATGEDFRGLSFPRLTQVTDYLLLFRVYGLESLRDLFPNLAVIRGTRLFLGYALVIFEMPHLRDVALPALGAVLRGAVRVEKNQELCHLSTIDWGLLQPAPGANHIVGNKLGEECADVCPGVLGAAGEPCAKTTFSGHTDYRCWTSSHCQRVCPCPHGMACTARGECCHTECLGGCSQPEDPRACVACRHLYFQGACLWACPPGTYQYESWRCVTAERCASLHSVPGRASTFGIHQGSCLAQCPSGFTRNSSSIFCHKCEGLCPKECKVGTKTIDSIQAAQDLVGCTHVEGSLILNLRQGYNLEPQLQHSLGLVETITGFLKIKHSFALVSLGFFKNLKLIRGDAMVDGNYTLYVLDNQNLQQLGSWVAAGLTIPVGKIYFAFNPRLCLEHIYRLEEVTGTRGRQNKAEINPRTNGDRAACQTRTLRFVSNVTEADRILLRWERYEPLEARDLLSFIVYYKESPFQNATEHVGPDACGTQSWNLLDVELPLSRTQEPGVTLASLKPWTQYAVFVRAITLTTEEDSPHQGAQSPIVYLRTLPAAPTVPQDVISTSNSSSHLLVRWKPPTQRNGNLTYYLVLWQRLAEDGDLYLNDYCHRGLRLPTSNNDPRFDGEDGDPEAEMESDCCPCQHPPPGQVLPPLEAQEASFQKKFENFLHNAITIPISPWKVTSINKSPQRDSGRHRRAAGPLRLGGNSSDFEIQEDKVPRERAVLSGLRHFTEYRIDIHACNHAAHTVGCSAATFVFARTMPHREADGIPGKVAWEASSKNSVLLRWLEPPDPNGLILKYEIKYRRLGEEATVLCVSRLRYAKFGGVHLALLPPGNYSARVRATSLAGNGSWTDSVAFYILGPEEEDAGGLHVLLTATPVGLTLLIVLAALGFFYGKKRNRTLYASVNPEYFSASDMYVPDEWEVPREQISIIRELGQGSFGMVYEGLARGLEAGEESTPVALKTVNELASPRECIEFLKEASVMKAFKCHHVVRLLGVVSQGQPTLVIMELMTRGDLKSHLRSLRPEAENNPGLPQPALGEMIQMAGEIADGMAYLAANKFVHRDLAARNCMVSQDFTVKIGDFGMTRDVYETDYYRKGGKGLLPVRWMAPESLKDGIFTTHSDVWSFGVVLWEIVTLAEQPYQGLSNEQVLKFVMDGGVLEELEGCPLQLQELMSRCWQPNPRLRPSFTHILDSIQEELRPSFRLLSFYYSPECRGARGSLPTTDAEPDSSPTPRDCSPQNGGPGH
Chain of MARK4 (human) (Q96L34 whole entry, looked up): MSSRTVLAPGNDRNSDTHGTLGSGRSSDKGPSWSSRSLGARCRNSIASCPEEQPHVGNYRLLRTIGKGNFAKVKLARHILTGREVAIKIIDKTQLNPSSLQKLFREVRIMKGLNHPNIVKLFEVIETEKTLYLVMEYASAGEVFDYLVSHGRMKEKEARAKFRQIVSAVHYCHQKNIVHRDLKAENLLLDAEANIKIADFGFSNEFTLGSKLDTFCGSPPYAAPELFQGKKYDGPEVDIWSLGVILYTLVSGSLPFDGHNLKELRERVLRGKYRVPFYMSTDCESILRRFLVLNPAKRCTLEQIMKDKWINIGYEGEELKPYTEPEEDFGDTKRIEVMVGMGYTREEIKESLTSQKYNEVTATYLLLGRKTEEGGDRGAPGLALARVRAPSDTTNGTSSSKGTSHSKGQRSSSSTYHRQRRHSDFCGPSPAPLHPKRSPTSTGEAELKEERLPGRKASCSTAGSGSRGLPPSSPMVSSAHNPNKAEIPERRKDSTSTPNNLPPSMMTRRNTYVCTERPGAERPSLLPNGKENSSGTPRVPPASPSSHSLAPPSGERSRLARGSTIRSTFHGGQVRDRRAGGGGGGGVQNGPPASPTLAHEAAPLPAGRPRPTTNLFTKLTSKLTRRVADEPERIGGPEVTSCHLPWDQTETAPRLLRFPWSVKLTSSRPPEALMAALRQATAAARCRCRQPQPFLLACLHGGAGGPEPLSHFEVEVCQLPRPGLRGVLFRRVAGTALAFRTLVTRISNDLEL

NC1(c2ccc(-c3nc4ccn5c(=O)[nH]nc5c4cc3-c3ccccc3)cc2)CCC1
residual activity (SYK (human); compound 0.1 µM): 116%
residual activity (SYK (human); compound 1.0 µM): 100%
residual activity (SYK (human); compound 10.0 µM): 96%
residual activity (PLK1 (human); compound 1.0 µM): 105%
residual activity (PLK1 (human); compound 10.0 µM): 94%
residual activity (PIM3 (human); compound 0.1 µM): 89%
residual activity (PIM3 (human); compound 1.0 µM): 83%
residual activity (PIM3 (human); compound 10.0 µM): 51%
residual activity (INSRR (human); compound 0.1 µM): 95%
residual activity (INSRR (human); compound 1.0 µM): 80%
residual activity (INSRR (human); compound 10.0 µM): 61%
residual activity (MARK4 (human); compound 0.1 µM): 98%
residual activity (MARK4 (human); compound 1.0 µM): 102%
residual activity (MARK4 (human); compound 10.0 µM): 92%
residual activity (TBK1 (human); compound 0.1 µM): 88%
residual activity (TBK1 (human); compound 1.0 µM): 102%
residual activity (TBK1 (human); compound 10.0 µM): 89%
residual activity (CDK2 CCNA2 (human); compound 0.1 µM): 100%
residual activity (CDK2 CCNA2 (human); compound 1.0 µM): 84%
residual activity (CDK2 CCNA2 (human); compound 10.0 µM): 75%
residual activity (INSR (human); compound 1.0 µM): 79%
residual activity (INSR (human); compound 10.0 µM): 83%
residual activity (MAPKAPK3 (human); compound 0.1 µM): 88%
residual activity (MAPKAPK3 (human); compound 1.0 µM): 107%
residual activity (MAPKAPK3 (human); compound 10.0 µM): 94%
residual activity (FLT1 (human); compound 0.1 µM): 88%
residual activity (FLT1 (human); compound 1.0 µM): 81%
residual activity (FLT1 (human); compound 10.0 µM): 53%
residual activity (EPHA4 (human); compound 0.1 µM): 107%
residual activity (EPHA4 (human); compound 1.0 µM): 116%
residual activity (EPHA4 (human); compound 10.0 µM): 97%
residual activity (MAP3K11 (human); compound 0.1 µM): 103%
residual activity (MAP3K11 (human); compound 1.0 µM): 97%
residual activity (MAP3K11 (human); compound 10.0 µM): 81%
residual activity (RIPK2 (human); compound 0.1 µM): 101%
residual activity (RIPK2 (human); compound 1.0 µM): 84%
residual activity (RIPK2 (human); compound 10.0 µM): 38%
residual activity (MAP2K2 (human); compound 0.1 µM): 103%
residual activity (MAP2K2 (human); compound 1.0 µM): 99%
residual activity (MAP2K2 (human); compound 10.0 µM): 90%
residual activity (IRAK4 (human); compound 0.1 µM): 106%
residual activity (IRAK4 (human); compound 1.0 µM): 92%
residual activity (IRAK4 (human); compound 10.0 µM): 99%
residual activity (AURKA (human); compound 0.1 µM): 114%
residual activity (AURKA (human); compound 1.0 µM): 89%
residual activity (AURKA (human); compound 10.0 µM): 93%
residual activity (TTK (human); compound 0.1 µM): 106%
residual activity (TTK (human); compound 1.0 µM): 105%
residual activity (TTK (human); compound 10.0 µM): 80%
residual activity (MAPK12 (human); compound 0.1 µM): 94%
residual activity (MAPK12 (human); compound 1.0 µM): 94%
